Columns and labels:
[1] = test system: plasmin (binding to and degradation of FITC-fibrinogen); assay: Plasmin-mediated fibrinogenolysis assay: fluorescence dequenching of FITC-fibrinogen; format: biochemical
Method: To illustrate plasmin-mediated fibrinogenolysis into degradation products, 10 nM of plasmin was mixed for about 5 seconds in the reaction buffer containing 250 nM FITC-fibrinogen. […] The action of plasmin on FITC-fibrinogen produced an immediate large increase in fluorescence intensity (dequenching) in a plasmin-dependent manner (FIG. 4). The detection limit has been found under routine conditions to be at least 10 picomolar plasmin.
In that competition, some plasmin was able to bind fibrinogen as indicated by the initial rate of dequenching.

[2] = test system: fibrinogen (FITC-fibrinogen polymerized by thrombin); conditions: 1 U/ml thrombin
Method: Fibrinogen was labeled with FITC using a 0.1M sodium bicarbonate buffer. After stopping the reaction with hydroxylamine (0.15M final concentration), the FITC-fibrinogen was dialyzed extensively before storage. The buffer for the polymerization reaction comprised either 0.1M NaCl, 0.05M Tris-HCl, 5 mM CaCl2 ("buffer 1") or 0.3M NaCl, 0.05M Tris-HC1, 5 mM CaCl2 ("buffer 2"). Cuvettes were incubated with 10 μM bovine serum albumin for 30 minutes to minimize adsorption of substrate to the cuvette walls.
In a series of reactions to produce fibrinogen polymerization into fibrin fibers, thrombin (final concentrations ranging from 0.1 U/ml, 0.25 U/ml, 0.5 U/ml and 1 U/ml) was mixed for about 5 seconds in either buffer 1 or buffer 2 containing a dilute FITC-fibrinogen (<40 nM) solution. Polymerization was monitored by exciting the reaction mixture with blue light (488 nm) and monitoring the fluorescence emission at 515 nm using a fluorimeter.

Q: With `NCCCCCC(=O)O` [ε-amino caproic acid] as the compound, how does the “progression of fibrinogenolysis (cessation of dequenching)” value ([1]; addition of 10 mM ε-amino caproic acid during fibrinogenolysis) read?
A: The value was “immediately inhibited”.

Q: And the inhibition of dequenching ([1]; excess ε-amino caproic acid added after plasmin-mediated fibrinogenolysis was initiated (FIG. 8))?
A: Its inhibition of dequenching is “dose-dependent inhibition”.

Q: What about the dequenching rate ([1]; plasmin preincubated with 10 mM ε-amino caproic acid before addition of fluorescent-labeled fibrinogen (FIG. 7)) of the same compound?
A: Its dequenching rate is “greatly reduced”.

Q: With Gly-Pro-Arg-Pro [GPRP] as the compound, how does the thrombin-induced quenching prevented ([2]; 100 μM GPRP added before polymerization) read?
A: The thrombin-induced quenching prevented was “Over 80%”.

Q: And the “rate and extent of quenching associated with polymerization” value ([2]; 0.1, 10 and 100 μM GPRP)?
A: Its value is “reduced in a dose-dependent manner”.
